Where two headings read alike, the source gives them in different places. Numbered stars: 1 amine (or outer) side, 2 acyl side, 3 side chain; on linkers, the order of the positions; unused ones are H or OH. Bridge positions count the residues as written; N and C are the ends. Square brackets hold non-standard residues; d marks the D form. Peptide text beside a SMILES is read from it. * marks the point of attachment. Benzothiophen(2-yl)carbonyl = O=C(c1cc2ccccc2s1)*; X2 = CC[C@H](C)[C@@H](N[*:1])[C@@H](O)CC(=O)[*:2]; NMeY = CN[C@@H](Cc1ccc(O)cc1)C(=O)O; dNMeL = CN[C@H](CC(C)C)C(=O)O; Hiv = CC(C)[C@H](O)C(=O)O; Aib = CC(C)(N)C(=O)O
What was measured:
[1] = system: Huh-7 cells (human hepatoma cell line)
HCoV-229E = type: cell-based
SARS-CoV-2 = test: APLICOV-PC clinical study in patients hospitalised for COVID-19: efficacy; type: in vivo, human
alveolar macrophages = test: LPS animal inflammation model: macrophages in bronchoalveolar lavage by flow cytometry; type: in vivo, mouse; conditions: mice 1 mg/kg single i.v., LPS 20 µg/kg i.p.
Description: Three hours later, bronchoalveolar lavages were collected.

[2] = system: IL6, IL8, IL1β and TNF-α secretion; test: Plitidepsin pre-treatment of THP-1 NFκB luc cells before Resiquimod: cytokines; type: cell-based, human; conditions: 1, 10 or 50 nM added 8 hours before Resiquimod 2.5 or 5 µg/mL; measured at 24 hours
Protocol: (§1) In a further in vitro experiment, the effect of plitidepsin (APL) pre-treatment on THP-1 cells was studied. Using a THP-1 NFκB luc line, 1, 10 or 50 nM of APL or DMSO (0.2%) was added 8 hours before stimulus with Resiquimod (RQ) at 2.5 or 5 µg/mL. RQ is a TLR⅞ agonist and mimics ssRNA. At 24 hours the level of cytokines or cell viability was measured.

TNFα = test: Resiquimod-triggered TNFα in BALF of mice; type: in vivo; conditions: mice 1 mg/kg i.v. 1 hour before 50 µg/mouse intranasal resiquimod; 1 and 3 hours
THP-1 cells = test: Plitidepsin pre-treatment of THP-1 NFκB luc cells before Resiquimod: cell viability; type: cell-based, human; conditions: 1, 10 or 50 nM added 8 hours before Resiquimod 2.5 or 5 µg/mL; measured at 24 hours
Protocol: as §1

[3] = system: HIV-1 recombinant virus (NL4.3 Luc); type: cell-based; conditions: MT-2 cells
[4] = system: HIV-1 recombinant virus (NL4.3 Luc); type: cell-based; conditions: PBMCs

CC[C@H](C)[C@H]1NC(=O)[C@@H](NC(=O)[C@@H](CC(C)C)N(C)C(=O)[C@@H]2CCCN2C(=O)[C@H](C)NC(=O)[C@@H](Cc2ccccc2)NC(=O)OC(C)(C)C)[C@@H](C)OC(=O)[C@H](Cc2ccc(OC)cc2)N(C)C(=O)[C@@H]2CCCN2C(=O)[C@H](CC(C)C)NC(=O)[C@@H](C)C(=O)[C@H](C(C)C)OC(=O)C[C@@H]1O [Compound 9]
Cell growth / viability (DAPI fluorescence images) [1]: cells remain viable at all concentrations | Antiviral activity (GFP fluorescence images) (HCoV-229E): remarkable antiviral properties are seen across all concentrations

CC[C@H](C)[C@H]1NC(=O)[C@@H](NC(=O)[C@H](CC(C)C)N(C)C(=O)[C@@H]2CCCN2C(=O)C(C)=O)[C@@H](C)OC(=O)[C@H](Cc2ccc(OC)cc2)N(C)C(=O)[C@@H]2CCCN2C(=O)[C@H](CC(C)C)NC(=O)[C@@H](C)C(=O)[C@H](C(C)C)OC(=O)C[C@@H]1O [PLD, Plitidepsin]
Cell growth / viability (DAPI fluorescence images) [1]: cells remain viable at all concentrations | Median time for PCR conversion (SARS-CoV-2): 7 days | Evaluable patients requiring post PLD specific anti COVID 19 therapy (SARS-CoV-2; interim results): 2 out of 8 | Evaluable patients with disease control and major clinical improvements (SARS-CoV-2; interim results): 6 out of 8 | Evaluable patients with PCR conversion to negative (SARS-CoV-2; interim results, 1.5 mg and 2 mg cohorts): 6 out of 8 | Deaths on study (SARS-CoV-2; interim results, 9 patients): no deaths on study | Need for mechanical ventilation or ICU admission (SARS-CoV-2; interim results, 9 patients): none of the patients required mechanical ventilation or ICU admission | Median time to hospital discharge (SARS-CoV-2; interim results, range (7 -19)): 8 days | Macrophages in bronchoalveolar lavage (alveolar macrophages): reduces the number of macrophages in BAL | Secretion of IL6, IL8, IL1β and TNF-α induced by RQ [2]: inhibited secretion of the pro-inflammatory cytokines: IL6, IL8, IL1β and TNF-α | Resiquimod-induced TNFα production in BALF (TNFα): prevented the increased production of TNFα | Antiviral activity (GFP fluorescence images) (HCoV-229E): remarkable antiviral properties are seen across all concentrations | Cell viability (THP-1 cells): does not decrease viability over the untreated control

CC[C@H](C)[C@H]1NC(=O)[C@@H](NC(=O)[C@@H](CC(C)C)N(C)C(=O)c2cc3ccccc3s2)[C@@H](C)OC(=O)[C@H](Cc2ccc(OC)cc2)N(C)C(=O)[C@@H]2CCCN2C(=O)[C@H](CC(C)C)NC(=O)[C@H](C(C)C)OC(=O)C[C@@H]1O [Compound 10] ({Benzothiophen(2-yl)carbonyl}-[dNMeL]T[X2][Hiv]LP[NMeY](Me); ester 2-C)
Cell growth / viability (DAPI fluorescence images) [1]: cells remain viable at all concentrations | Antiviral activity (GFP fluorescence images) (HCoV-229E): remarkable antiviral properties are seen across all concentrations

CC[C@H](C)[C@H]1NC(=O)[C@@H](NC(=O)[C@H](CC(C)C)N(C)C(=O)[C@@H]2CCCN2C(=O)C(C)=O)[C@@H](C)OC(=O)[C@H](Cc2ccc(OC)cc2)N(C)C(=O)[C@@H]2CCCN2C(=O)[C@H](CC(C)C)NC(=O)[C@@H](C)C(=O)[C@H](C(C)C)OC(=O)C[C@@H]1O [Compound 8]
Antiviral activity [3]: antiviral activity | Antiviral activity [4]: antiviral activity

CC[C@H](C)[C@H]1NC(=O)[C@@H](NC(=O)[C@@H](CC(C)C)NC)[C@@H](C)OC(=O)[C@H](Cc2ccc(OC)cc2)N(C)C(=O)[C@@H]2CCCN2C(=O)[C@H](CC(C)C)NC(=O)C(C)(C)NC(=O)C[C@@H]1O [Compound 3] (H-[dNMeL]T[X2][Aib]LP[NMeY](Me); ester 2-C)
Toxic concentrations (not reached at) (MT-2 cells): > 57.3 µM
